Results: patent publication US12427159B2, “Hydroxypyrrolidine-substituted arylsulfonamide compounds with selective activity in voltage-gated sodium channels” (Merck Sharp & Dohme LLC, priority 2019, dated 2025)
Where “and” joins values, the source holds several entries; their conditions need not be identical. Equal values may be shown once.

What was measured:
human Nav1.7 channels = biological target: T1, human Nav1.7 channels (Homo sapiens, UniProt Q15858); assay: IonWorks Quattro automated patch-clamp, inactivated state block of Nav1.7; assay type: cell-based; details: human Nav1.7 stably expressed in HEK 293 cells, double-pulse protocol, read-out: potency for the Nav 1.7 sodium ion channel (as measured by IonWorks)
T1 construct: expressed in transfected cells; host or cells: HEK 293
Protocol: (§1) IonWorks® Experimental Procedure
(§2) Compounds were tested on human Nav1.7 and Nav1.5 channels stably expressed in HEK 293 cells. Sodium current measurements on IonWorks Quattro: An automated patch-clamp assay on the IonWorks Quattro platform (Molecular Devices) was used to measure state-dependent inhibition of human Nav1.7 and 1.5 channels. Cells were sealed on a planar substrate using the Population Patch […] (PPC) technology. Electrical access was obtained using both nystatin and amphotericin. A double-pulse protocol was used for the determination of IC50 values for inactivated state block. Nav1.7 and Nav1.5 expressing cells were voltage clamped at −100 mV and −110 mV, respectively. A depolarizing prepulse to −10 mV (Nav1.7) or −30 mV (Nav1.5) for 1000 ms followed by a 10 ms repolarization to −100 mV (Nav1.7) or −110 mV (Nav1.5) was given to generate fractional channel inactivation of ˜ 50%, followed by a 10 ms test pulse to −10 mV (Nav1.7) or −30 mV (Nav1.5) to measure peak current in control conditions and after compound addition. The following recording solutions were used (mM). External: 150 NaCl, 2 CaCl2), 5 KCl, 1 Mg Cl2, 10 HEPES, 12 Dextrose; internal: 120 CsF, 30 CsCl, 10 EGTA, 5 HEPES, 5 NaF, 2 MgCl2.
(§3) For all electrophysiology experiments, offline analysis was used to determine percent inhibition as a function of drug concentration. IC50 values were determined by fitting to the Hill equation.
(§4) The various compounds in Examples 1 through 4 and Tables 1 through 3 exemplified above were assayed for activity and selectivity using the foregoing IonWorks® technique. The results are reported in the following paragraph in a format expressing the identification of the compound with reference Example and compound (e.g. Ex 1-9 is Example 1, compound 9) followed by the observed potency in nM and the ratio of Nav1.7 potency:Nav 1.5 potency as described here. […]

human Nav1.5 channels = biological target: T2, human Nav1.5 channels (Homo sapiens, UniProt Q14524); assay: IonWorks Quattro automated patch-clamp, Nav1.5 (selectivity versus Nav1.7); assay type: cell-based; details: selectivity Nav1.7 over Nav1.5, both by IonWorks in HEK 293 cells
T2 construct: expressed in transfected cells; host or cells: HEK 293
Protocol: as §1, §2, §3, §4

T1 sequence (Q15858 whole entry): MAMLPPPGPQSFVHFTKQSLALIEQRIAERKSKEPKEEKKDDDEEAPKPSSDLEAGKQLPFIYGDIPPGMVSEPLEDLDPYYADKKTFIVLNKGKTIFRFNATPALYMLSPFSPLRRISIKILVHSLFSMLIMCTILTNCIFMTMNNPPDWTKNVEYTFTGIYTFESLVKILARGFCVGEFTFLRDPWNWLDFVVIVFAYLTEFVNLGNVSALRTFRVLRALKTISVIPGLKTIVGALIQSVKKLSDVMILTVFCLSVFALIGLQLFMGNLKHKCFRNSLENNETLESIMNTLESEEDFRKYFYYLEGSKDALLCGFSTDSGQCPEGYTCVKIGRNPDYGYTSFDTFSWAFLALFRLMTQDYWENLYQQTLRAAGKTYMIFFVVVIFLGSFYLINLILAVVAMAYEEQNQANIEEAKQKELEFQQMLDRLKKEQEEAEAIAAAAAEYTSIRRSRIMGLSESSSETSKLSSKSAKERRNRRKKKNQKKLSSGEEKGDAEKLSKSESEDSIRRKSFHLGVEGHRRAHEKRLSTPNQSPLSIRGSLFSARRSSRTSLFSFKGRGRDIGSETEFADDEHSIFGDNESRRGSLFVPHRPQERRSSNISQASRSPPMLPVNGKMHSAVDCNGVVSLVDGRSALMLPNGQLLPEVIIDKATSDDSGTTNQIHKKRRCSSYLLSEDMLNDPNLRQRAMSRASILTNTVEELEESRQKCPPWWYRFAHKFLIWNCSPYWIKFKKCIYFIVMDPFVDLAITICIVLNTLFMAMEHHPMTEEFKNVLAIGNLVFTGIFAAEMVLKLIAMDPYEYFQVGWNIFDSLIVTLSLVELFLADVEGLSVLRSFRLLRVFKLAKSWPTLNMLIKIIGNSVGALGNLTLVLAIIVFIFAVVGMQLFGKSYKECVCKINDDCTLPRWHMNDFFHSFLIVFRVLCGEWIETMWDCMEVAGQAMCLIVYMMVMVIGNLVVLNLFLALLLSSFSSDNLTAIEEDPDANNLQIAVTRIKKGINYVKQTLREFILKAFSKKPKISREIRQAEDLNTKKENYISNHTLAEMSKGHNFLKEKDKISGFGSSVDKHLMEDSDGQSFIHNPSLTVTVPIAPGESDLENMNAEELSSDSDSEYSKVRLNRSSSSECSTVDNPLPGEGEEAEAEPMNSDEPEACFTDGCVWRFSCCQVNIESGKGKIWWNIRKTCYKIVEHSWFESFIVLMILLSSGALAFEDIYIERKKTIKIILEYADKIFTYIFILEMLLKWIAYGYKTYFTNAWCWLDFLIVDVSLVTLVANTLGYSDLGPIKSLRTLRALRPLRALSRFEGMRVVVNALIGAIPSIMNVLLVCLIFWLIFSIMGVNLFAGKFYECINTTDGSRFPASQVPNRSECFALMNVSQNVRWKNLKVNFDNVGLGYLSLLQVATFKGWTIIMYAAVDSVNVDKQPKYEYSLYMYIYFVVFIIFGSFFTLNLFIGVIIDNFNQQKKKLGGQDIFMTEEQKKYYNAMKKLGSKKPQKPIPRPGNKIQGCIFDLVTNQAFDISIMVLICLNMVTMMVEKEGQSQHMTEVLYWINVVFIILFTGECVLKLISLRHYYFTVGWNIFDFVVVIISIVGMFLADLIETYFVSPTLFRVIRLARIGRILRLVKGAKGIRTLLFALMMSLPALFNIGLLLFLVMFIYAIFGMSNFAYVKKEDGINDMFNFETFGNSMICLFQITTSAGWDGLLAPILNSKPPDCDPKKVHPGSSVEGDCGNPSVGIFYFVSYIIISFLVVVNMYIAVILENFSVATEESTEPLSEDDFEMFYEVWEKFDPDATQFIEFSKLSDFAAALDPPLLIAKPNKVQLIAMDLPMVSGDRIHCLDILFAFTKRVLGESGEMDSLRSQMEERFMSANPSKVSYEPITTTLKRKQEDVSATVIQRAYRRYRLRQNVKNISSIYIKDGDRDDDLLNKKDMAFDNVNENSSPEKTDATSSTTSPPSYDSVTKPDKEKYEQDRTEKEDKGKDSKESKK
T2 sequence (Q14524 whole entry): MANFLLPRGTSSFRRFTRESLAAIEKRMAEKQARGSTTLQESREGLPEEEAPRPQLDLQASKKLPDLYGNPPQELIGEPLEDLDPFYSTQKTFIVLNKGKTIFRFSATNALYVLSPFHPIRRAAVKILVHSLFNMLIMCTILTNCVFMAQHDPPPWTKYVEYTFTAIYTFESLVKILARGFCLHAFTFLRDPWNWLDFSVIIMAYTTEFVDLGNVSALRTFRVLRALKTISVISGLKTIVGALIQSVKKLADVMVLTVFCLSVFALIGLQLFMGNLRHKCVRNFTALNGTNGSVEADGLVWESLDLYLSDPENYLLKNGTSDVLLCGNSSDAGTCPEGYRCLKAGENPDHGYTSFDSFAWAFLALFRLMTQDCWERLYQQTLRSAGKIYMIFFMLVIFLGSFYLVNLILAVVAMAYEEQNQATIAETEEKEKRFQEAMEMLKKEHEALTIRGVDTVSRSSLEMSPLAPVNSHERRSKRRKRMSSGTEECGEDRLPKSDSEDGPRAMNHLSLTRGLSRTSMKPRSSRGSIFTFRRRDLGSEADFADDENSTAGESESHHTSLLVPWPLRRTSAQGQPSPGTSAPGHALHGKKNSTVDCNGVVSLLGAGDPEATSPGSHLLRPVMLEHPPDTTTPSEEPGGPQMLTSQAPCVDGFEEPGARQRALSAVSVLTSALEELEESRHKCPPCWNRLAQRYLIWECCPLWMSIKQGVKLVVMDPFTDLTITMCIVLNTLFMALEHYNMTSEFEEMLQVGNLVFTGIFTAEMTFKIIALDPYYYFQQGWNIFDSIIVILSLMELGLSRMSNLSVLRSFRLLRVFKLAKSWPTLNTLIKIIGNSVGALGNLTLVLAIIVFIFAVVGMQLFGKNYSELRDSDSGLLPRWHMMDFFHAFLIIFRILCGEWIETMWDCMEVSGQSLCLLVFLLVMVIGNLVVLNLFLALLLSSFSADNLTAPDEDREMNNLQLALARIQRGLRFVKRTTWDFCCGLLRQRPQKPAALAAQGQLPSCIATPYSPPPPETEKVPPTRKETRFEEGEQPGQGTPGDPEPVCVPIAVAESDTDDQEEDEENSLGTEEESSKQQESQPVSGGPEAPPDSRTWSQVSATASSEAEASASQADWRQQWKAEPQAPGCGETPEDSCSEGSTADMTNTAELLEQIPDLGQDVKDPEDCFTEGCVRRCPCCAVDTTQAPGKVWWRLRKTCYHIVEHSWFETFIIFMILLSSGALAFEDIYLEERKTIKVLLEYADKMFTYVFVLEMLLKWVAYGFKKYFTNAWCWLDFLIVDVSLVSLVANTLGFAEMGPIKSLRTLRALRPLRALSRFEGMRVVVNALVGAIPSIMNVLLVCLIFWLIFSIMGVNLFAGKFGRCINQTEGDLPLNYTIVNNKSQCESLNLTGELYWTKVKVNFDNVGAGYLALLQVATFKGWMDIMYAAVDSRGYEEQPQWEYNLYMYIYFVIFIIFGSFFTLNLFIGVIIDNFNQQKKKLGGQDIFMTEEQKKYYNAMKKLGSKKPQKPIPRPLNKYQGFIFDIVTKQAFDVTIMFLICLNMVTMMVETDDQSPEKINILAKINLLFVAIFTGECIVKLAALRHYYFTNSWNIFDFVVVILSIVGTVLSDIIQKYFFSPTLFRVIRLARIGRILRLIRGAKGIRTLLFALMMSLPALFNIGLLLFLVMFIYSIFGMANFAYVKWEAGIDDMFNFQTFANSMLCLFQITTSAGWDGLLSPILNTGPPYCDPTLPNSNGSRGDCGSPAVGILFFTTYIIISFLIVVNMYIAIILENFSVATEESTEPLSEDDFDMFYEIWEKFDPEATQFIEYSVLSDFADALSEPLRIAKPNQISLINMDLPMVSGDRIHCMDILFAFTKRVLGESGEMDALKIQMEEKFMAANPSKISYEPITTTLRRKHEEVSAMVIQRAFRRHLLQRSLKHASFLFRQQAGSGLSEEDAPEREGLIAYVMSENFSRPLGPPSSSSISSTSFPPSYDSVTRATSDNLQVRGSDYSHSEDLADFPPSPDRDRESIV

| SMILES | IC50 (human Nav1.7 channels) | ratio of Nav1.7 potency:Nav 1.5 potency (human Nav1.5 channels) |
| --- | --- | --- |
| N#Cc1cccc(C[C@@]2(CNc3cc(F)c(S(=O)(=O)Nc4nccs4)cc3Cl)C[C@H](O)CN2)c1 [Ex2-4, 5-chloro-4-((((2S,4S)-2-(3-cyanobenzyl)-4-hydroxypyrrolidin-2-yl)methyl)amino)-2-fluoro-N-(thiazol-2-yl)benzenesulfonamide] | 11 nM | 2909 |
| COc1cccc(C[C@@]2(CNc3cc(F)c(S(=O)(=O)Nc4nccs4)cc3Cl)C[C@H](O)CN2)c1 [Ex1-31, 5-chloro-2-fluoro-4-((((2S,4S)-4-hydroxy-2-(3-methoxybenzyl)pyrrolidin-2-yl)methyl)amino)-N-(thiazol-2-yl) benzenesulfonamide] | 7 nM | 4714 |
| O=S(=O)(Nc1nccs1)c1cc(Cl)c(NC[C@]2(CCCc3ccccc3)C[C@H](O)CN2)cc1F [Ex1-29, 5-chloro-2-fluoro-4-((((2S,4S)-4-hydroxy-2-(3-phenylpropyl)-pyrrolidin-2-yl)methyl)amino)-N-(thiazol-2-yl)-benzene-sulfonamide] | 2 nM | 10500 |
| O=S(=O)(Nc1nccs1)c1cc(Cl)c(NC[C@]2(Cc3ccc(-c4ccccn4)cc3)C[C@H](O)CN2)cc1F [Ex3-2, 5-Chloro-2-Fluoro-4-((((2S,4S)-4-Hydroxy-2-(4-(Pyridin-2-Yl)Benzyl)Pyrrolidin-2-Yl)Methyl)Amino)-N-(Thiazol-2-Yl)Benzenesulfonamide] | 7 nM | 543 |
| N#Cc1ccc(C[C@@]2(CNc3cc(F)c(S(=O)(=O)Nc4nccs4)cc3Cl)C[C@H](O)CN2)cc1 [Ex2-2, 5-Chloro-4-((((2S,4S)-2-(4-Cyanobenzyl)-4-Hydroxypyrrolidin-2-Yl)Methyl)Amino)-2-Fluoro-N-(Thiazol-2-Yl)Benzenesulfonamide] | 4 nM | 3000 |
| CC(C)(C)CC[C@@]1(CNc2cc(F)c(S(=O)(=O)Nc3nccs3)cc2Cl)C[C@H](O)CN1 [Ex1-34, 5-chloro-4-((((2S,4S)-2-(3,3-dimethylbutyl)-4-hydroxypyrrolidin-2-yl)methyl)amino)-2-fluoro-N-(thiazol-2-yl) benzenesulfonamide] | 4 nM | 6750 |
| O=S(=O)(Nc1nccs1)c1cc(Cl)c(NC[C@]2(CC3CCC3)C[C@H](O)CN2)cc1F [Ex1-15, 5-Chloro-4-((((2S,4S)-2-(Cyclobutylmethyl)-4-Hydroxypyrrolidin-2 Yl)Methyl)Amino)-2-Fluoro-N-(Thiazol-2-Yl)Benzenesulfonamide] | 4 nM | > 7500 |
| Cc1cccc(C[C@@]2(CNc3cc(F)c(S(=O)(=O)Nc4nccs4)cc3Cl)C[C@H](O)CN2)c1 [Ex1-32] | 2 nM | 16500 |
| O=S(=O)(Nc1nccs1)c1cc(Cl)c(NC[C@]2(Cc3ccc(-c4ncco4)cc3)C[C@H](O)CN2)cc1F [Ex3-3, 5-chloro-2-fluoro-4-((((2S,4S)-4-hydroxy-2-(4-(oxazol-2-yl)benzyl)pyrrolidin-2-yl)methyl)amino)-N-(thiazol-2-yl)benzenesulfonamide] | 9 nM | 933 |
| NCc1ccc(C[C@@]2(CNc3cc(F)c(S(=O)(=O)Nc4nccs4)cc3Cl)C[C@H](O)CN2)cc1 [Ex2-3, 4-((((2S,4S)-2-(4-(Aminomethyl) Benzyl)-4-Hydroxypyrrolidin-2-Yl) Methyl)Amino)-5-Chloro-2-Fluoro-N-(Thiazol-2-Yl)Benzenesulfonamide] | 38 nM | 868 |
| O=S(=O)(Nc1nccs1)c1cc(Cl)c(NC[C@]2(Cc3ccccc3)C[C@H](O)CN2)cc1F [Ex1-9, 4-((((2S,4S)-2-Benzyl-4-Hydroxypyrrolidin-2-Yl)Methyl)Amino)-5-Chloro-2-Fluoro-N-(Thiazol-2-Yl)Benzenesulfonamide] | 8 nM | 3976 and > 3976 |
| O=S(=O)(Nc1nccs1)c1cc(Cl)c(NC[C@]2(Cc3cccc(Br)c3)C[C@H](O)CN2)cc1F [Ex1-30, 4-((((2S,4S)-2-(3-bromobenzyl)-4-hydroxypyrrolidin-2-yl)methyl)amino)-5-chloro-2-fluoro-N-(thiazol-2-yl) benzenesulfonamide] | 7 nM | 1220 |
| O=S(=O)(Nc1nccs1)c1cc(Cl)c(NC[C@]2(Cc3ccc(Br)cc3)C[C@H](O)CN2)cc1F [Ex1-22, 4-((((2S,4S)-2-(4-Bromobenzyl)-4-Hydroxypyrrolidin-2-Yl)Methyl)Amino)-5-Chloro-2-Fluoro-N-(Thiazol-2-Yl)Benzenesulfonamide] | 4 nM | 84 |
| O=S(=O)(Nc1nccs1)c1cc(Cl)c(NC[C@]2(CCc3ccccc3)C[C@H](O)CN2)cc1F [Ex1-28, 5-Chloro-2-Fluoro-4-((((2S,4S)-4-Hydroxy-2-Phenethylpyrrolidin-2-Yl)Methyl)-Amino)-N-(Thiazol-2-Yl)Benzenesulfonamide] | 3 nM | 11000 |
| O=S(=O)(Nc1nccs1)c1cc(Cl)c(NC[C@]2(Cc3cccc(F)c3)C[C@H](O)CN2)cc1F [Ex1-33, 5-chloro-2-fluoro-4-((((2S,4S)-2-(3-fluorobenzyl)-4-hydroxypyrrolidin-2-yl)methyl)amino)-N-(thiazol-2-yl) benzenesulfonamide] | 7 nM | 1714 |
| NCc1cccc(C[C@@]2(CNc3cc(F)c(S(=O)(=O)Nc4nccs4)cc3Cl)C[C@H](O)CN2)c1 [Ex2-5, 4-((((2S,4S)-2-(3-(aminomethyl)benzyl)-4-hydroxypyrrolidin-2-yl)methyl)amino)-5-chloro-2-fluoro-N-(thiazol-2-yl)benzenesulfonamide] | 4 nM | 6250 |
| O=S(=O)(Nc1nccs1)c1cc(Cl)c(NC[C@]2(Cc3ccc(-c4ccn[nH]4)cc3)C[C@H](O)CN2)cc1F [Ex4-2, 4-((((2S,4S)-2-(4-(1H-Pyrazol-5-Yl)Benzyl)-4-Hydroxypyrrolidin-2-Yl) Methyl)Amino)-5-Chloro-2-Fluoro-N-(Thiazol-2-Yl)Benzenesulfonamide] | 18 nM | 367 |
